# Test system: NOMO1
# Experiment: cell viability relative to DMSO control; higher = less cytotoxic
# Conditions: 48 h
# Summary of the method: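 NOMO1 or SEM cells were plated at 500 cells/well and P12-Ichikawa cells at 1000 cells/well in 1536-well plates (5 μl), after each leukemia line had been adapted for at least four passages in each medium. Pin dosing delivered library compounds in DMSO at 11 threefold concentrations, 47 μM to 0.79 nM. CellTiter-Glo One luminescence was read after 48 h at 37°C. Viability is reported as a per-plate percentage of DMSO wells, with cell-free wells as background.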
# [1] = HPLM + 10% dialyzed FBS, 0.000781 µM
# [2] = HPLM + 10% dialyzed FBS, 0.00234 µM
# [3] = HPLM + 10% dialyzed FBS, 0.00702 µM
# [4] = HPLM + 10% dialyzed FBS, 0.0211 µM
# [5] = HPLM + 10% dialyzed FBS, 0.0632 µM
# [6] = HPLM + 10% dialyzed FBS, 0.19 µM
# [7] = HPLM + 10% dialyzed FBS, 0.569 µM
# [8] = HPLM + 10% dialyzed FBS, 1.71 µM
# [9] = HPLM + 10% dialyzed FBS, 5.12 µM
# [10] = HPLM + 10% dialyzed FBS, 15.4 µM
# [11] = HPLM + 10% dialyzed FBS, 46.1 µM
# [12] = RPMI 5 mM glucose + 10% FBS, 0.000781 µM
# [13] = RPMI 5 mM glucose + 10% FBS, 0.00234 µM
# [14] = RPMI 5 mM glucose + 10% FBS, 0.00702 µM
# [15] = RPMI 5 mM glucose + 10% FBS, 0.0211 µM
# [16] = RPMI 5 mM glucose + 10% FBS, 0.0632 µM
# [17] = RPMI 5 mM glucose + 10% FBS, 0.19 µM
# [18] = RPMI 5 mM glucose + 10% FBS, 0.569 µM
# [19] = RPMI 5 mM glucose + 10% FBS, 1.71 µM
# [20] = RPMI 5 mM glucose + 10% FBS, 5.12 µM
# [21] = RPMI 5 mM glucose + 10% FBS, 15.4 µM
# [22] = RPMI 5 mM glucose + 10% FBS, 46.1 µM
# [23] = RPMI 5 mM glucose + 10% dialyzed FBS, 0.000781 µM
# [24] = RPMI 5 mM glucose + 10% dialyzed FBS, 0.00234 µM
# [25] = RPMI 5 mM glucose + 10% dialyzed FBS, 0.00702 µM
# [26] = RPMI 5 mM glucose + 10% dialyzed FBS, 0.0211 µM
# [27] = RPMI 5 mM glucose + 10% dialyzed FBS, 0.0632 µM
# [28] = RPMI 5 mM glucose + 10% dialyzed FBS, 0.19 µM
# [29] = RPMI 5 mM glucose + 10% dialyzed FBS, 0.569 µM
# [30] = RPMI 5 mM glucose + 10% dialyzed FBS, 1.71 µM
# [31] = RPMI 5 mM glucose + 10% dialyzed FBS, 5.12 µM
# [32] = RPMI 5 mM glucose + 10% dialyzed FBS, 15.4 µM
# [33] = RPMI 5 mM glucose + 10% dialyzed FBS, 46.1 µM
SMILES,cell viability [1],cell viability [2],cell viability [3],cell viability [4],cell viability [5],cell viability [6],cell viability [7],cell viability [8],cell viability [9],cell viability [10],cell viability [11],cell viability [12],cell viability [13],cell viability [14],cell viability [15],cell viability [16],cell viability [17],cell viability [18],cell viability [19],cell viability [20],cell viability [21],cell viability [22],cell viability [23],cell viability [24],cell viability [25],cell viability [26],cell viability [27],cell viability [28],cell viability [29],cell viability [30],cell viability [31],cell viability [32],cell viability [33]
CC\1=C(C(\N=C(/N1)C2=CC(=NC=C2)Cl)C3=C(F)C=C(Cl)C=C3)/C(=O)NC4=C(F)C=C5[NH]N=CC5=C4 (stereo not given),85.8%,97.5%,108%,116%,112%,96.7%,107%,110%,105%,115%,27%,101%,100%,101%,104%,95.3%,93.4%,95.7%,98.2%,89%,85.3%,29.4%,94.7%,96.6%,122%,111%,108%,99.8%,106%,98.2%,82.7%,97.3%,40.7%
CN1[C@@H]2CC(OC(=O)[C@@H](CO)c3ccccc3)C[C@H]1[C@H]1O[C@H]12 (stereo not given in full),94.8%,120%,108%,124%,103%,104%,106%,95.8%,93.8%,92.3%,121%,87.3%,86.7%,101%,85.5%,90.3%,85.2%,86.3%,93.4%,82.9%,81.4%,81.3%,80.4%,95.5%,98.8%,88.5%,102%,103%,90.9%,99.4%,88.2%,95.4%,89.8%
CO[C@H]1/C=C/O[C@@]2(C)Oc3c(C)c(O)c4c(O)c(c5c(nc6cc(C)ccn65)c4c3C2=O)NC(=O)/C(C)=C\C=C\[C@H](C)[C@H](O)[C@@H](C)[C@@H](O)[C@@H](C)[C@H](OC(C)=O)[C@@H]1C,104%,119%,112%,96.1%,116%,110%,96%,93.8%,35.5%,91.7%,11.1%,107%,99.1%,97.7%,110%,82.7%,105%,87.6%,98.7%,43.8%,91.4%,44.9%,99.4%,97.8%,95.3%,108%,86.3%,108%,99.9%,99.7%,28.9%,82.3%,18.6%
Cn1c(=O)c2c(ncn2C)n(C)c1=O.O=C(O)CC(O)(CC(=O)O)C(=O)O,118%,106%,123%,133%,105%,114%,100%,104%,98.9%,86%,109%,95.4%,98.9%,107%,101%,115%,104%,106%,106%,101%,91.2%,93.8%,93.8%,113%,109%,106%,114%,107%,119%,98.6%,97.3%,89.2%,85.4%
CC(=O)N(C)c1cccc(-c2ccnc3c(C(=O)c4cccs4)cnn23)c1,110%,107%,110%,77.7%,99.4%,94.8%,104%,119%,97.5%,113%,95.2%,95.6%,104%,100%,92.6%,99.5%,104%,98%,100%,102%,94.5%,90.1%,92.8%,103%,87.2%,73.7%,97.9%,89%,99.4%,87.2%,95.6%,99.6%,82.2%
